Data published in US9409893B2, “Heteroaryl derivatives and uses thereof” (Jacobus Pharmaceutical Company, Inc., priority 2012, dated 2016).
Marks after values point to notes of the source that are not given here.

Assays:
[1] = tested on: Plasmodium berghei (KBG-173 strain); experiment: Plasmodium berghei assay in vivo (modified Thompson Test) in CD-1 mice; details: bid on days 3, 4 and 5; for Average Days Survival: 31 day experiment
Protocol: In vivo antimalarial activity was tested in male or female Charles River CD-1 mice that were 4-5 weeks old and weighed 20-25 g They were housed in groups of 3 or 4 in standard plastic cages with wire tops, Bed-o-Cob® bedding, 12 hr/day of light, and maintained at 75° F. They were fed a standard Ralston Purina mouse chow and the cages and bottles were changed twice a week. Test compounds were ground in a mortar and pestle and diluted with enough vehicle to give a volume of 10 mL/kg of mouse weight. The oral doses were prepared in 0.5% hydroxyethylcellulose (Union Carbide Corp. WP 4400)/0.1% Tween-80 (Fisher Scientific T164-500). The amount of drug was calculated on the free base weight. The mice were infected intraperitoneally on day 0 with 5×10^4 erythrocytes parasitized with Plasmodium berghei (KBG-173 strain) from a donor mouse having a parasitemia between 5-10%. On days 3, 4 and 5 the test compounds were administered bid, spaced 6 hr apart, by oral gavage to the mice. Activity was measured by survival, with full activity defined as all animals living at day 31. Partial activity is defined as days of increased survival versus the infected non-treated controls. This in vivo model is a modification of the Thompson Test. For further description see Ager, A. L, Jr. Rodent Malaria Models. In Handbook of Experimental Pharmacology: Antimalarial Drugs. 1. 68/1; Peters, W., Richards, W. H. G., Eds.: Springer-Verlag: Berlin, 1984, pp. 231-33.

hERG potassium channel = hERG potassium channel (Homo sapiens, UniProt Q12809); experiment: Whole cell patch clamp of cloned hERG potassium channels expressed in HEK293 cells; format: cell-based; details: for IC50: patch clamp, read-out: IC50 for the inhibitory effect on hERG potassium current
Sequence of hERG potassium channel (Q12809 whole entry): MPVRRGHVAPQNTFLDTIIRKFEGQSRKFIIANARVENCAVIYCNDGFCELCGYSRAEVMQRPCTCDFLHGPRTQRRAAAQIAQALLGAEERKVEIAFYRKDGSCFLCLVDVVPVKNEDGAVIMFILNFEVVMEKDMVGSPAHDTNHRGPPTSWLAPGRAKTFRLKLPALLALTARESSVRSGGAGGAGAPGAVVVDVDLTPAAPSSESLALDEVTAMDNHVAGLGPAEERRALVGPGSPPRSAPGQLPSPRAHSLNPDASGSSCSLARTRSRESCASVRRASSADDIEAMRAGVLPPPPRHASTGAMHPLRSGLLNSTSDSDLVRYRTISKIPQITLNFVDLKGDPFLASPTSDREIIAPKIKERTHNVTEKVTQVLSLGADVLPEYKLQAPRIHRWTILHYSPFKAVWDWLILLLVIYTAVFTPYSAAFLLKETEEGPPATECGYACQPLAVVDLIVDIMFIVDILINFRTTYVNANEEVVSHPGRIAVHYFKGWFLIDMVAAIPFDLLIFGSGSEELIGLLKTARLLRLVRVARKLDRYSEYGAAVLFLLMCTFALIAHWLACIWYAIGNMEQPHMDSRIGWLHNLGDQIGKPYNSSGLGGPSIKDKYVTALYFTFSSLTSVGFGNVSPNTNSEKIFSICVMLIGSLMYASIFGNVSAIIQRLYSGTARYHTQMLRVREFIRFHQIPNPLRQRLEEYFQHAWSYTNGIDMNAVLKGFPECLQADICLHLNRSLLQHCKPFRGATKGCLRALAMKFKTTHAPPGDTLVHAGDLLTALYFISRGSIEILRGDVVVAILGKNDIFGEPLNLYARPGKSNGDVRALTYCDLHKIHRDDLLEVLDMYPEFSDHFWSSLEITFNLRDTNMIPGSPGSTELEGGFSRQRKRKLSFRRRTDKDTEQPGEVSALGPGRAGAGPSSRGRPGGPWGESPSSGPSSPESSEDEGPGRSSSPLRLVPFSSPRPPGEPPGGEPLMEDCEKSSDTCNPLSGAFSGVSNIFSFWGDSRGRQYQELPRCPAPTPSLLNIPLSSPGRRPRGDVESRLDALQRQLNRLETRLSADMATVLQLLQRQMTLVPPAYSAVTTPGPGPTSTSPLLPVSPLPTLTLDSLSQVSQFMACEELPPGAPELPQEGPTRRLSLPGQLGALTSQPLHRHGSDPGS
Description: For in vitro testing, the functional hERG assay using conventional patch clamp electrophysiology is considered the gold standard for assessment of drug interactions with the hERG potassium channel (Yao et al., Br. J. Pharmacol. 2008, 154, 1446-1456). In this assay, hERG channels are expressed in a human embryonic kidney (HEK293) cell line that lacks endogenous IKr.
The objective of this study was to examine the in vitro effects of test articles on the hERG (human ether-à-go-go-related gene) potassium channel current (a surrogate for IKr, the rapidly activating delayed rectifier cardiac potassium current).
(§1) All chemicals used in solution preparation were purchased from Sigma-Aldrich (St. Louis, Mo.) unless otherwise noted and were of ACS reagent grade purity or higher. Stock solutions of the test article and the positive control were prepared in dimethyl sulfoxide (DMSO) and stored frozen. Test article and positive control concentrations were prepared fresh daily by diluting stock solutions into a HEPES-buffered physiological saline (HB-PS) solution (composition in mM): NaCl, 137; KCl, 4.0; CaCl2, 1.8; MgCl2, 1; HEPES, 10; Glucose, 10; pH adjusted to 7.4 with NaOH (prepared weekly and refrigerated until use).
HEK/hERG • Organism: Homo sapiens • Designation: 293 • Tissue: Kidney; Transformed with adenovirus 5 DNA; Transfected with human-ether-a-go-go cDNA • Morphology: Epithelial • Age Stage Embryo • Source Strain: ATCC, Manassas, Va. • Source Substrain ChanTest Corporation, Cleveland, Ohio
HEK293 cells were stably transfected with hERG cDNA. Stable transfectants were selected by coexpression with the G418-resistance gene incorporated into the expression plasmid. Selection pressure was maintained by including G418 in the culture medium. Cells were cultured in Dulbecco's Modified Eagle Medium/Nutrient Mixture F-12 (D-MEM/F-12) supplemented with 10% fetal bovine serum, 100 U/mL penicillin G sodium, 100 μg/mL streptomycin sulfate and 500 μg/mL G418.
All experiments were performed at room temperature. Each cell acted as its own control.
(§2) Experiments were performed as outlined in the section entitled Experimental Procedures. Concentrations were selected to evaluate the concentration-response relationship of each test article based on the initial results or the solubility limits in vehicle. Each concentration was tested in at least three cells (n≧3).
Cells were transferred to the recording chamber and superfused with vehicle control solution. Micropipette solution for whole cell patch clamp recordings was composed of (mM): potassium aspartate, 130; MgCl2, 5; EGTA, 5; ATP, 4; HEPES, 10; pH adjusted to 7.2 with KOH. Pipette solution was prepared in batches, aliquoted, stored frozen, and a fresh aliquot was thawed each day. Patch pipettes were made from glass capillary tubing using a P-97 micropipette puller (Sutter Instruments, Novato, Calif.). A commercial patch clamp amplifier was used for whole cell recordings. Before digitization, current records were low-pass filtered at one-fifth of the sampling frequency.
Onset and steady state inhibition of hERG current was measured using a pulse pattern with fixed amplitudes (conditioning prepulse: +20 mV for 2 s; test pulse: −50 mV for 2 s) repeated at 10 s intervals, from a holding potential of −80 mV. Peak tail current was measured during the 2 s step to −50 mV.
(§3) Each test article at 10 μM was applied to at least 3 cells (n≧3).
One or more test article concentrations were applied sequentially (without washout between test substance concentrations) in ascending order, to each cell (n≧3). A steady state was maintained for at least 30 s before applying test article or positive control. Peak current was measured until a new steady state was achieved.
Steady state was defined by the limiting constant rate of change with time (linear time dependence). The steady state before and after test article application was used to calculate the percentage of current inhibited at each concentration. […]

[2] = Solubility in hERG test solution (HB-PS + 0.3% DMSO); format: physicochemical; details: 30 μM nominal concentration
Protocol: as §1, §2, §3

[3] = Plasmodium berghei, 744 h, 4 mg/kg/day oral, CD-1 mice infected with P. berghei, read-out: Number of mice alive at day 31 (converted)
[4] = Plasmodium berghei, 744 h, 8 mg/kg/day oral, CD-1 mice infected with P. berghei, read-out: Number of mice alive at day 31 (converted)
[5] = Plasmodium berghei, 744 h, 16 mg/kg/day oral, CD-1 mice infected with P. berghei, read-out: Number of mice alive at day 31 (converted)
[6] = Plasmodium berghei, 744 h, 32 mg/kg/day oral, CD-1 mice infected with P. berghei, read-out: Number of mice alive at day 31 (converted)
[7] = Plasmodium berghei, 744 h, 64 mg/kg/day oral, CD-1 mice infected with P. berghei, read-out: Number of mice alive at day 31 (converted)
[8] = human, HEK293 cells stably expressing hERG, pH 7.4, HEK293/hERG, room temperature, read-out: Mean percentage of hERG current inhibited

Compound	Average Days Survival ([1]; 4 mg/kg/day oral)	Average Days Survival ([1]; 8 mg/kg/day oral)	Average Days Survival ([1]; 16 mg/kg/day oral)	Average Days Survival ([1]; 32 mg/kg/day oral)	Average Days Survival ([1]; 64 mg/kg/day oral)	responders at 4 mg/kg [1, 3]	responders at 8 mg/kg [1, 4]	responders at 16 mg/kg [1, 5]	responders at 32 mg/kg [1, 6]	responders at 64 mg/kg [1, 7]	IC50 (hERG potassium channel; HEK293/hERG)	inhibition at 3 µM (hERG potassium channel; [8])	inhibition at 10 µM (hERG potassium channel; [8])	inhibition at 30 µM (hERG potassium channel; [8])	Solubility in hERG test solution [2]	Average Days Survival ([1]; 2 mg/kg/day oral)	responders at 2 mg/kg ([1]; Plasmodium berghei, 744 h, 2 mg/kg/day oral, CD-1 mice infected with P. berghei, read-out: Number of mice alive at day 31 (converted))	Hill coefficient of hERG inhibition (hERG potassium channel; fit of concentration-response data)	inhibition at 100 µM (hERG potassium channel; human, HEK293 cells stably expressing hERG, pH 7.4, 100 μM, HEK293/hERG, room temperature, read-out: Mean percentage of hERG current inhibited)	inhibition at 1 µM (hERG potassium channel; human, HEK293 cells stably expressing hERG, pH 7.4, 1 μM, HEK293/hERG, room temperature, read-out: Mean percentage of hERG current inhibited)
CC(C)(C)NCc1cc(C(C)(C)C)cc(-c2cnc(C(F)(F)F)nc2)c1O.Cl [Example 33, 4-(tert-Butyl)-2-((tert-butylamino)methyl)-6-(2-(trifluoromethyl)pyrimidin-5-yl)phenol hydrochloride]	>30 days	>31* days	>31* days	>31* days	>31* days	85.7%	100%	100%	100%	100%	> 10 µM	4.1%	12.9%	24.3%	not in solution					
CC(C)(C)NCc1cc(C(C)(C)C)cc(-c2ccc(C(F)(F)F)nc2)c1O.Cl [Example 1, 4-(tert-Butyl)-2-((tert-butylamino)methyl)-6-(6-(trifluoromethyl)pyridin-3-yl)phenol hydrochloride]	>31* days	>31* days	>31* days	>31* days	>31* days	100%	100%	100%	100%	100%	9.8 µM	18.4%	48.5%	84%		>27 days	71.4%	1.4	98.2%	
CC(C)(C)NCc1cc(C(C)(C)C)cc(-c2cnc(C(F)(F)F)c(F)c2)c1O.Cl [Example 34, 4-(tert-Butyl)-2-((tert-butylamino)methyl)-6-(5-fluoro-6-(trifluoromethyl)pyridin-3-yl)phenol hydrochloride]	>28 days	>31* days	>31* days	>31* days	>31* days	85.7%	100%	100%	100%	100%	> 10 µM	11.3%	15.9%		not in solution					2.6%
